{"source": "patent US20030153538A1", "about": "“Antitumor agent” (The Nisshin OilliO, Ltd., priority 2000, published 2003)", "key": {"B-16 melanoma cells": {"tested_on": "B-16 melanoma cells", "experiment": "Tests for tumor cell-proliferation-inhibitory effect and tumor cell-extinction (cell growth rate from viable cell count)", "type": "cell-based", "protocol": "The tumor cell-proliferation-inhibitory effect and the tumor cell-killing or extinction effect can be determined according to the following method using B-16 melanoma cells.\nMore specifically, B-16 melanoma cells are inoculated in each well of a 6-well plate in a desired amount, followed by allowing the plate to stand at 37° C. and 5% carbon dioxide concentration to thus cultivate the cells, adding a sample solution to be tested (maslinic acid, erythrodiol, ursolic acid, uvaol, betulinic acid, betulin and physiologically acceptable salts thereof or derivatives thereof) to each well in an amount sufficient for achieving a desired concentration, on the next day or after 5 days from the initiation of the cultivation, determination of viable cell count on the 6th day after the initiation of the cultivation and calculation of the cell growth rate based on the viable cell count to thus evaluate the tumor cell-proliferation-inhibitory effect and the tumor cell-killing effect.\nTests for determining the tumor cell-proliferation-inhibitory effect and the tumor cell-killing effect were conducted according to the following method. To a 6-well plate, a culture medium was dispensed in an amount of 2 mL/well, B-16 melanoma cells were then inoculated in a desired quantity and thereafter the melanoma cells were cultivated by allowing the plate or the culture medium to stand at 37° C. and a carbon dioxide concentration of 5%. On the following day, a test sample solution prepared was added to and admixed with the content of each well to a desired concentration and the cultivation of the melanoma cells was continued. The culture medium was then exchanged on the 5th day from the initiation of the cultivation and the test sample solution was again added to each well. On the next day, the culture medium was removed to recover the cultivated melanoma cells, followed by washing the cells with PBS (phosphate buffered saline), determination of the viable cell count, and then calculation of the cell growth rate according to the following equation 1. The tumor cell-proliferation-inhibitory effect and the tumor cell-killing effect of each test sample were evaluated on the basis of the cell growth rate thus determined.\nCell Growth Rate (%)=(A/B)×100\nAs comparative examples, oleanolic acid, β-amyrin, α-amyrin and lupeol were added to the culture medium to thus determine and evaluate the cell growth rate by the same method used above."}, "B16 melanoma cells": {"tested_on": "B16 melanoma cells", "experiment": "Test for malignant melanoma metastasis-inhibitory effect (lung metastasis after i.v. injection of B16 melanoma cells)", "type": "in vivo, Whister female rats", "settings": "rats", "protocol": "The tumor cell-metastasis-inhibitory effect can be evaluated according to, for instance, the malignant melanoma metastasis-inhibitory test. More specifically, a suspension of B16 melanoma cells prepared in advance is intravenously injected into Whister female rats, cotton seed oil in which each test substance is dissolved in a predetermined concentration is intraperitoneally administered through injection or orally administered using a sonde, every second day starting from 2nd day after the intravenous injection of the suspension. In this connection, only cotton seed oil is administered to the control group of animals. The lungs are extracted from these animals on the 15th day after the injection of the B16 melanoma cells, the lungs are examined to determine the number of cancer lesions thus metastasized to thus calculate the rate of metastasis-inhibition. The tumor cell-metastasis-inhibitory effect of each test sample is evaluated on the basis of the resulting rate of metastasis-inhibition.\nTests for evaluating the malignant melanoma metastasis-inhibitory effect of each test sample were conducted according to the following method. Whister female rats (6-week-old; average body weight: 160 g) were preliminarily bred with a powdery feed preparation having a composition of AIN-93 for one week, these animals were divided into 5 groups (8 animals per group) so as to equalize the average body weight and then a previously prepared suspension of B16 melanoma cells was intravenously injected into each rat. Subsequently, these animals were bred with a powdery feed preparation having a composition of AIN-93 and cotton seed oil in which each of maslinic acid, erythrodiol, ursolic acid, uvaol, betulinic acid, betulin, compounds of Synthetic Examples 1 and 2, or oleanolic acid had been dissolved in a predetermined concentration was intraperitoneally injected into each animal or orally administered thereto using a sonde, every other day starting from the 2nd day after the injection of the B 16 melanoma cells. In this connection, only cotton seed oil was administered to the control group. On the 15th day after the injection of the B 16 melanoma cells, the lung of each animal was taken out, the lungs were examined to determine the number of cancer lesions thus metastasized and to thus calculate the rate of metastasis-inhibition in accordance with the following equation 2. The tumor cell-metastasis-inhibitory effect of each test sample could be evaluated on the basis of the resulting rate of metastasis-inhibition.\nRate of Metastasis-Inhibition (%)=[(D−C)/D]×100\nWherein C: Average number of cancer lesions metastasized observed in each animal group; and D: average number of cancer lesions metastasized observed in the control group.\nMaslinic acid, erythrodiol, ursolic acid, uvaol, betulinic acid, betulin and physiologically acceptable salts thereof or derivatives thereof as well as cotton seed oil as the control were inspected for the rate of metastasis-inhibition (RMI) using the dose and administration methods specified in the following Table 2. In addition, the same procedures used above were repeated except for using oleanolic acid as a comparative sample to thus evaluate the rate of metastasis-inhibition (RMI) thereof."}}, "data": [{"smiles": "C=C(C)[C@@H]1CC[C@]2(C(=O)O)CC[C@]3(C)[C@H](CC[C@@H]4[C@@]5(C)CC[C@H](O)C(C)(C)[C@@H]5CC[C@]43C)[C@@H]12", "note": "[Betulinic acid]", "values": [{"measurement": "activity at 5 ppm", "setting": "B-16 melanoma cells; Mus musculus, B16, 144 h, 5 ppm, viable cell count vs control on 6th day, read-out: Cell Growth Rate", "value": 88, "unit": "%"}, {"measurement": "activity at 15 ppm", "setting": "B-16 melanoma cells; Mus musculus, B16, 144 h, 15 ppm, viable cell count vs control on 6th day, read-out: Cell Growth Rate", "value": 77, "unit": "%"}, {"measurement": "activity at 25 ppm", "setting": "B-16 melanoma cells; Mus musculus, B16, 144 h, 25 ppm, viable cell count vs control on 6th day, read-out: Cell Growth Rate", "value": 58, "unit": "%"}, {"measurement": "activity at 50 ppm", "setting": "B-16 melanoma cells; Mus musculus, B16, 144 h, 50 ppm, viable cell count vs control on 6th day", "value": 38, "unit": "%"}, {"measurement": "tumor cell-proliferation-inhibitory effect (in words)", "setting": "B-16 melanoma cells; summary of Table 1", "value": "quite strong tumor cell-proliferation-inhibitory effects"}, {"measurement": "RMI (rate of metastasis-inhibition)", "setting": "B16 melanoma cells; 100 mg/body wt. (kg), Oral Adm., every other day, lung lesions on 15th day", "value": 51.2, "unit": "%"}, {"measurement": "tumor cell-metastasis-inhibitory effect compared with the control group (in words)", "setting": "B16 melanoma cells; metastasis of cancer to lung, summary of Table 2", "value": "significantly (P<0.05) inhibit any metastasis of cancer to lung"}]}]}
